The NIST ThermoML archive (doi:10.1021/acs.jced.7b01049)
± gives the expanded uncertainty stated by the source.

Assay: xn = mol fraction of the nth substance listed
Conditions: for surface tension liquid-gas / mass density: discharge crucible method; for mass density / viscosity: 100 kPa, Liquid; for viscosity: discharge crucible

[Pb] [lead] + [Sb]
Conditions	mass density [kg/m3]	surface tension liquid-gas [mN/m]	viscosity [mPa·s]
573 K, x2 = 0.1675	10206 ± 610	437.1 ± 26	2.565 ± 0.17
623 K, x2 = 0.1675	10142 ± 610	433.7 ± 26	2.262 ± 0.15
673 K, x2 = 0.1675	10087 ± 600	429.9 ± 26	1.999 ± 0.13
673 K, x2 = 0.4	9263 ± 560	418.3 ± 25	1.873 ± 0.12
723 K, x2 = 0.1675	10019 ± 600	426.6 ± 26	1.836 ± 0.12
723 K, x2 = 0.4	9201 ± 550	414.6 ± 25	1.721 ± 0.11
773 K, x2 = 0.1675	9963 ± 600	422.8 ± 25	1.694 ± 0.11
773 K, x2 = 0.4	9143 ± 550	411.5 ± 25	1.573 ± 0.1
773 K, x2 = 0.6	8244 ± 500	400.5 ± 24	1.561 ± 0.1
823 K, x2 = 0.1675	9905 ± 590	419.1 ± 25	1.583 ± 0.1
823 K, x2 = 0.4	9095 ± 550	407.8 ± 24	1.475 ± 0.097
823 K, x2 = 0.6	8185 ± 490	397.1 ± 24	1.449 ± 0.095
873 K, x2 = 0.1675	9862 ± 590	415.6 ± 25	1.495 ± 0.098
873 K, x2 = 0.4	9042 ± 540	403.9 ± 24	1.358 ± 0.089
873 K, x2 = 0.6	8138 ± 490	393.9 ± 24	1.333 ± 0.088
873 K, x2 = 0.9	6977 ± 420	376.2 ± 23	1.539 ± 0.1
923 K, x2 = 0.1675	9814 ± 590	411.9 ± 25	1.425 ± 0.093
923 K, x2 = 0.4	8991 ± 540	400.2 ± 24	1.266 ± 0.083
923 K, x2 = 0.6	8098 ± 490	390.7 ± 23	1.211 ± 0.08
923 K, x2 = 0.9	6938 ± 420	372.6 ± 22	1.357 ± 0.089
973 K, x2 = 0.9	6892 ± 410	368.6 ± 22	1.212 ± 0.08
1023 K, x2 = 0.9	6856 ± 410	364.4 ± 22	1.118 ± 0.074
